Experimental data taken from US7615651B2, “Diaryl, dipyridinyl and aryl-pyridinyl derivatives and uses thereof” (Pfizer Inc., priority 2006, dated 2009).
Where two headings read alike, the source gives them in different places.

Assays:
Assay type in all cases: biochemical
[1] = biological target: T1, opioid receptor mu (Homo sapiens, UniProt P35372); assay: GTPγ[35S] binding assay, antagonism of endorphin; conditions: read-out: Mu functional (GTPγ[35S] binding Ki)
T1 construct: expressed in transfected cells
T1 sequence (P35372 whole entry): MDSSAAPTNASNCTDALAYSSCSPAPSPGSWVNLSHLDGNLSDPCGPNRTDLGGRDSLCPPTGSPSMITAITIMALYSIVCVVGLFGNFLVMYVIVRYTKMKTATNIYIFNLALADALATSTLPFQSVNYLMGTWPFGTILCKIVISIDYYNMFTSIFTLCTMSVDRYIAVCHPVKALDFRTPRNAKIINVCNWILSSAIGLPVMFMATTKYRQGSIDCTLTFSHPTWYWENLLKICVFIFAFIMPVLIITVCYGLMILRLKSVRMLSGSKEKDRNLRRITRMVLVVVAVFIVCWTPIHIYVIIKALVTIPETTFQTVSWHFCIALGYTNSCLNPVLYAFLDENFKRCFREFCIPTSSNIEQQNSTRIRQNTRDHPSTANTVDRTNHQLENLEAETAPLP
Procedure: (§1) Membranes were prepared from cells as described (Bass et al, 1996). GTPγ[5S] binding assays were performed in a 96 well FlashPlate™ format in duplicate using […] GTPγ[^35S] and 5 μg membrane per well in assay buffer composed of 50 mM Tris HCl, pH 7.4, 5 mM MgCl2, 1 mM EDTA, 100 mM NaCl, 30 μM GDP, 0.1% bovine serum albumin and the following protease inhibitors: 100 μg/ml bacitracin, 100 μg/ml benzamidine, 5 μg/ml aprotinin, 5 μg/ml leupeptin. The assay mix was then incubated at 30° C. with increasing concentrations of antagonist (10^−10 M to 10^−5 M) for 10 minutes and challenged with the agonists BW-373U86 (1 nM), dynorphin-A (10 nM), […] (1 μM) for opioid receptors delta, kappa, and mu, respectively. The assays were performed at 30° C. for one hour. The FlashPlates were then centrifuged at 2000×g for 10 minutes. Stimulation of GTPγ[^35S] binding was then quantified using a Wallac Microbeta and Ki calculations were done using Prism™ by Graphpad.

[2] = biological target: T2, opioid receptor kappa (Homo sapiens, UniProt P41145); assay: GTPγ[35S] binding assay, antagonism of dynorphin-A; conditions: read-out: Kappa functional (GTPγ[35S] binding Ki)
T2 construct: expressed in transfected cells
T2 sequence (P41145 whole entry): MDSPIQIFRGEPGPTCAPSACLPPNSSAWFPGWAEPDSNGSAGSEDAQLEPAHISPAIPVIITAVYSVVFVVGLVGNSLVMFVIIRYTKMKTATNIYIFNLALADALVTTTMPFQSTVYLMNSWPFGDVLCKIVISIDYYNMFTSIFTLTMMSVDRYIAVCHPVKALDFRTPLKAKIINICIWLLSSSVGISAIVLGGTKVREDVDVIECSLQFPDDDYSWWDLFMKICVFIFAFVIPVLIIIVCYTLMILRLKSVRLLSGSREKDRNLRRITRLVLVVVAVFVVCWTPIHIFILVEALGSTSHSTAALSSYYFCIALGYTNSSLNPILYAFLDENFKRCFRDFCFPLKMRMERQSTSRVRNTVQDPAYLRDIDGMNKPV
Procedure: as §1

[3] = biological target: T3, opioid receptor delta (Homo sapiens, UniProt P41143); assay: GTPγ[35S] binding assay, antagonism of BW-373U86; conditions: read-out: Delta functional (GTPγ[35S] binding Ki)
T3 construct: expressed in transfected cells
T3 sequence (P41143 whole entry): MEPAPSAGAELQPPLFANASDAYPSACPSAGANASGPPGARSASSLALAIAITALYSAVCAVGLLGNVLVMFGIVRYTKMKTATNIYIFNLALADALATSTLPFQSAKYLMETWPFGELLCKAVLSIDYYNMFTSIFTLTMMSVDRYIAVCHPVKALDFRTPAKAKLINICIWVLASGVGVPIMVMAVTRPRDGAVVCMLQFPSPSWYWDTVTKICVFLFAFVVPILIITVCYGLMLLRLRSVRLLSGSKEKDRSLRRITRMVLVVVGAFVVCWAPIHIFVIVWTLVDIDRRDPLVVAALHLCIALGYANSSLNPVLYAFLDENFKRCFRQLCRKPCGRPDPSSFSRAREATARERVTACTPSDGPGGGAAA
Procedure: as §1

[4] = average Ki, antagonism of endorphin (1 μM) stimulated GTPγ[35S] binding, mu opioid receptor membranes
[5] = average Ki, antagonism of dynorphin-A (10 nM) stimulated GTPγ[35S] binding, kappa opioid receptor membranes
[6] = average Ki, antagonism of BW-373U86 (1 nM) stimulated GTPγ[35S] binding, delta opioid receptor membranes

| Compound | Ki [1, 4] | Ki [2, 5] | Ki [3, 6] | Ki [1] | Ki [2] | Ki [3] |
| --- | --- | --- | --- | --- | --- | --- |
| Cc1cc(CNCCC(C)C)ccc1-c1cccc(C(N)=O)c1 [1A-01] | 1.49 nM | 11.5 nM |  |  |  |  |
| Cc1cc(CNCCC(C)C)cc(C)c1-c1cccc(C(N)=O)c1 [1A-02] | 1.25 nM | 6.72 nM | 2.59 nM |  |  |  |
| CC(C)CCNCc1cc(Cl)c(-c2cccc(C(N)=O)c2)c(Cl)c1 [1A-03] | 1.2 nM | 3.76 nM | 4.87 nM |  |  |  |
| CC(C)CCNCc1ccc(-c2cccc(C(N)=O)c2)c(C#N)c1 [1A-04] | 4.64 nM | 28.8 nM | 13.8 nM |  |  |  |
| COc1cc(-c2cccc(C(N)=O)c2)ccc1CNCCC(C)C [1A-05] | 14 nM | 16.6 nM | 10.7 nM |  |  |  |
| CC(C)CCNCc1ccc(-c2cccc(C(N)=O)c2)cc1O [1A-06] | 52.3 nM | 101 nM | 0.0351 nM |  |  |  |
| CC(C)CCNCc1cc(F)c(-c2cccc(C(N)=O)c2)cc1F [1A-08] | 70.9 nM | 87.3 nM | 3160 nM |  |  |  |
| CC(C)CCNCc1cc(F)c(-c2cc(C(N)=O)ccc2F)cc1F [1A-09] | 64.8 nM | 51.1 nM | 16.7 nM |  |  |  |
| NC(=O)c1cccc(-c2cc(F)c(CNC3Cc4ccccc4C3)c(F)c2)c1 [1A-10] |  |  |  | 0.966 nM | 14.4 nM | 5.5 nM |
| NC(=O)c1ccc(F)c(-c2cc(F)c(CNC3Cc4ccccc4C3)c(F)c2)c1 [1A-11] |  |  |  | 0.843 nM | 12.4 nM | 6.62 nM |
| CC(C)CCNCc1ccc(-c2cc(C(N)=O)ccc2F)cc1F [1A-12] | 41.1 nM | 34.9 nM | 17.2 nM |  |  |  |
| CC(C)CCNCc1ccc(-c2cccc(C(N)=O)c2)cc1Cl [1A-13] | 25 nM | 23.4 nM | 33.6 nM |  |  |  |
| Cc1cc(CNCCC(C)C)ccc1-c1ccc(C(N)=O)cc1 [1B-01] | 17.8 nM | 24.8 nM | 13.6 nM |  |  |  |
| Cc1cc(C(N)=O)ccc1-c1c(F)cc(CNC2Cc3ccccc3C2)cc1F [1B-04] |  |  |  | 2.66 nM | 20.1 nM | 5.28 nM |
| CC(C)CCNCc1c(F)cc(-c2ccc(C(N)=O)cc2)cc1F [1B-05] | 107 nM | 162 nM | 3000 nM |  |  |  |
| Cc1cc(C(N)=O)ccc1-c1cc(F)c(CNC2Cc3ccccc3C2)c(F)c1 [1B-07] |  |  |  | 0.0494 nM | 0.241 nM | 0.0993 nM |
| Cc1cc(C(N)=O)ccc1-c1ccc(CNCCC(C)C)c(F)c1 [1B-08] | 3.24 nM | 1.89 nM | 1.97 nM |  |  |  |
| COCCNCc1c(F)cc(-c2ccc(C(N)=O)cc2C)cc1F [1B-09] | 70.5 nM | 17.9 nM | 11 nM |  |  |  |
| Cc1cc(C(N)=O)ccc1-c1ccc(CNC2Cc3ccccc3C2)c(F)c1 [1B-10] |  |  |  | 0.0717 nM | 0.256 nM | 0.0326 nM |
| CC(C)CCNCc1ccc(-c2cccc(C(N)=O)c2)cn1 [1C-01] | 154 nM | 114 nM | 22 nM |  |  |  |
| Cc1cc(C(N)=O)ccc1-c1ccc(CNCCC(C)C)nc1 [1D-01] | 20.5 nM | 17.1 nM | 11.7 nM |  |  |  |
| Cc1cc(C(N)=O)ccc1-c1ccc(CNCCC(C)C)cn1 [1D-02] | 43.1 nM | 14.7 nM | 4.33 nM |  |  |  |
| Cc1cc(C(N)=O)ccc1-c1ccc(CNC2Cc3ccccc3C2)cn1 [1D-03] |  |  |  | 0.541 nM | 2.93 nM | 1.24 nM |
| Cc1cc(C(N)=O)ccc1-c1ccc(CNC2Cc3ccccc3C2)nc1 [1D-04] |  |  |  | 0.715 nM | 1.88 nM | 0.868 nM |
| NC(=O)c1ccc(-c2ccc(CNC3Cc4ccccc4C3)nc2)c(Cl)c1 [1D-05] |  |  |  | 1.85 nM | 4.96 nM | 4.85 nM |
| NC(=O)c1ccc(-c2ccc(CNC3Cc4ccccc4C3)cn2)c(Cl)c1 [1D-06] |  |  |  | 1.1 nM | 4.13 nM | 3.45 nM |
| Cc1cc(CNCCC(C)C)ccc1-c1ncc(C(N)=O)cc1C [1D-07] | 1.43 nM | 8.99 nM | 9.3 nM |  |  |  |
| CC(C)CCNCc1ccc(-c2cccc(C(N)=O)c2)cc1 [4A-01] | 32.8 nM | 26.9 nM | 15.7 nM |  |  |  |
| CC(C)CCNCc1ccc(-c2ccc(F)c(C(N)=O)c2)cc1 [4A-02] | 44800 nM | 724 nM | 1.55 nM |  |  |  |
